Legend:
[1] = Human microsome stability assay; details: 1 μM compound, 0.5 mg/mL liver microsomal protein, 1 mM NADPH, 37° C., 0-30 minutes
[2] = biological target: T1, recombinant human Myt1 (full length PKMYT1) (Homo sapiens, UniProt Q99640); test: ADP-Glo assay (Myt1 kinase activity)
T1 sequence (Q99640 1-499): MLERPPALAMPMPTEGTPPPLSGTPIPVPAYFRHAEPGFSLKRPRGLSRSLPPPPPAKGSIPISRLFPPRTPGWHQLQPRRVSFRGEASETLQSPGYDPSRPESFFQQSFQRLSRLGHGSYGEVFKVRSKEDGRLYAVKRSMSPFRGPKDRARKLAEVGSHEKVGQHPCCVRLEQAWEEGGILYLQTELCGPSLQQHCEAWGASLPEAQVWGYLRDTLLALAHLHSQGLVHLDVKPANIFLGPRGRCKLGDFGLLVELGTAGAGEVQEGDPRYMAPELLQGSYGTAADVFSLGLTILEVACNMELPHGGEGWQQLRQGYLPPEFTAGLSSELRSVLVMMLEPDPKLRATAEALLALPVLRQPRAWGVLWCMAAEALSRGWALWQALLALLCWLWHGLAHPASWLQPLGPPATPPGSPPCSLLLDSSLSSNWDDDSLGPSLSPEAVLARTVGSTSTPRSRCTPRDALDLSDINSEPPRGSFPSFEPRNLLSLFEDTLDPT

SMILES | Clearance of Human microsome [1] | IC50 [2]
Nc1c(-c2ccc(F)c3[nH]ncc23)c2nccc(Cl)c2[nH]c1=O [Example 050, 3-Amino-8-chloro-4-(7-fluoro-1H-indazol-4-yl)-1H-1,5-naphthyridin-2-one] | 6.15 mL/min/kg | –
COc1c(C)cnc2c(-c3ccc(F)c4[nH]ncc34)c(N)c(=O)[nH]c12 [Example 051, 3-Amino-4-(7-fluoro-1H-indazol-4-yl)-8-methoxy-7-methyl-1H-1,5-naphthyridin-2-one] | 6.15 mL/min/kg | –
Cc1cnc2c(-c3ccc(F)c4[nH]ncc34)c(N)c(=O)[nH]c2c1Cl [Example 053, 3-Amino-8-chloro-4-(7-fluoro-1H-indazol-4-yl)-7-methyl-1H-1,5-naphthyridin-2-one] | 8.09 mL/min/kg | –
Cc1nc2c(-c3ccc(F)c4[nH]ncc34)c(N)c(=O)[nH]c2c(C)c1Cl [Example 056, 3-Amino-7-chloro-4-(7-fluoro-1H-indazol-4-yl)-6,8-dimethyl-1H-1,5-naphthyridin-2-one] | 7.47 mL/min/kg | –
CCOC(=O)COc1nc2c(-c3ccc(F)c4[nH]ncc34)c(N)c(=O)[nH]c2cc1C [Example 061, Ethyl 2-[[7-amino-8-(7-fluoro-1H-indazol-4-yl)-3-methyl-6-oxo-5H-1,5-naphthyridin-2-yl]oxy]acetate] | 6.15 mL/min/kg | 17.7 nM
Cc1cc2[nH]c(=O)c(N)c(-c3ccc(F)c4[nH]ncc34)c2nc1C1CCNCC1 [Example 069, 3-Amino-4-(7-fluoro-1H-indazol-4-yl)-7-methyl-6-(4-piperidyl)-1H-1,5-naphthyridin-2-one] | 7.78 mL/min/kg | 10.9 nM
Cc1cc2[nH]c(=O)c(N)c(-c3ccc(F)c4[nH]ncc34)c2nc1C#CC1COCC1O (stereo not shown) [Example 073, 3-Amino-4-(7-fluoro-1H-indazol-4-yl)-6-[2-(4-hydroxytetrahydrofuran-3-yl)ethynyl]-7-methyl-1H-1,5-naphthyridin-2-one] | 6.15 mL/min/kg | 14 nM
Cc1cc2[nH]c(=O)c(N)c(-c3ccc(F)c4[nH]ncc34)c2nc1C#CC(C)O (stereo not shown) [Example 074, 3-Amino-4-(7-fluoro-1H-indazol-4-yl)-6-(3-hydroxybut-1-ynyl)-7-methyl-1H-1,5-naphthyridin-2-one] | 6.15 mL/min/kg | 11 nM
Cc1cc2[nH]c(=O)c(N)c(-c3ccc(F)c4[nH]ncc34)c2nc1C#CCN1CCOCC1 [Example 076, 3-Amino-4-(7-fluoro-1H-indazol-4-yl)-7-methyl-6-(3-morpholinoprop-1-ynyl)-1H-1,5-naphthyridin-2-one] | 8.12 mL/min/kg | 14.8 nM
Cc1cc2[nH]c(=O)c(N)c(-c3ccc(F)c4[nH]ncc34)c2nc1C1CCN(C)CC1 [Example 082, 3-Amino-4-(7-fluoro-1H-indazol-4-yl)-7-methyl-6-(1-methyl-4-piperidyl)-1H-1,5-naphthyridin-2-one] | 6.15 mL/min/kg | 16.4 nM
Cc1nc(C)c2[nH]c(=O)c(N)c(-c3ccc(F)c4[nH]ncc34)c2n1 [Example 084, 7-Amino-8-(7-fluoro-1H-indazol-4-yl)-2,4-dimethyl-5H-pyrido[3,2-d]pyrimidin-6-one] | 6.15 mL/min/kg | < 10 nM
Cc1cc2[nH]c(=O)c(N)c(-c3ccc(F)c4[nH]ncc34)c2nc1C(=O)O [Example 089, 7-Amino-8-(7-fluoro-1H-indazol-4-yl)-3-methyl-6-oxo-5H-1,5-naphthyridine-2-carboxylic acid] | 6.15 mL/min/kg | –
Cc1cc(Cl)c2[nH]c(=O)c(N)c(-c3ccc(F)c4[nH]ncc34)c2n1 [Example 090, 3-Amino-8-chloro-4-(7-fluoro-1H-indazol-4-yl)-6-methyl-1H-1,5-naphthyridin-2-one] | 6.15 mL/min/kg | 13 nM
Cc1cc(Cl)nc2c(-c3ccc(F)c4[nH]ncc34)c(N)c(=O)[nH]c12 [Example 091, 3-Amino-6-chloro-4-(7-fluoro-1H-indazol-4-yl)-8-methyl-1H-1,5-naphthyridin-2-one] | 6.15 mL/min/kg | 14 nM
Cc1cc2[nH]c(=O)c(N)c(-c3ccc(F)c4[nH]ncc34)c2nc1C#N [Example 092, 7-Amino-8-(7-fluoro-1H-indazol-4-yl)-3-methyl-6-oxo-5H-1,5-naphthyridine-2-carbonitrile] | 6.15 mL/min/kg | 14.4 nM
Cc1cc2[nH]c(=O)c(N)c(-c3ccc(F)c4[nH]ncc34)c2nc1C1CN(C)C1 [Example 098, 3-Amino-4-(7-fluoro-1H-indazol-4-yl)-7-methyl-6-(1-methylazetidin-3-yl)-1H-1,5-naphthyridin-2-one] | 7.72 mL/min/kg | 18.7 nM
Cc1cc2c(-c3ccc(F)c4[nH]ncc34)c(N)c(=O)[nH]c2nc1C [Example 107, 3-Amino-4-(7-fluoro-1H-indazol-4-yl)-6,7-dimethyl-1H-1,8-naphthyridin-2-one] | 7.13 mL/min/kg | 22.3 nM
Cc1nc2c(-c3ccc(F)c4[nH]ncc34)c(N)c(=O)[nH]c2c(C)c1C [Example 110, 3-Amino-4-(7-fluoro-1H-indazol-4-yl)-6,7,8-trimethyl-1H-1,5-naphthyridin-2-one] | 6.15 mL/min/kg | 16.7 nM
Cc1c(N2CCC2)cnc2c(-c3ccc(F)c4[nH]ncc34)c(N)c(=O)[nH]c12 [Example 117, 3-Amino-7-(azetidin-1-yl)-4-(7-fluoro-1H-indazol-4-yl)-8-methyl-1H-1,5-naphthyridin-2-one] | 7.72 mL/min/kg | 14.9 nM
Cc1c(C#N)cnc2c(-c3ccc(F)c4[nH]ncc34)c(N)c(=O)[nH]c12 [Example 118, 7-Amino-8-(7-fluoro-1H-indazol-4-yl)-4-methyl-6-oxo-5H-1,5-naphthyridine-3-carbonitrile] | 6.15 mL/min/kg | 17.8 nM
Cc1c(-c2ccnnc2)cnc2c(-c3ccc(F)c4[nH]ncc34)c(N)c(=O)[nH]c12 [Example 120, 3-Amino-4-(7-fluoro-1H-indazol-4-yl)-8-methyl-7-pyridazin-4-yl-1H-1,5-naphthyridin-2-one] | 6.15 mL/min/kg | 17.2 nM
Cc1c(C2COC2)cnc2c(-c3ccc(F)c4[nH]ncc34)c(N)c(=O)[nH]c12 [Example 122, 3-Amino-4-(7-fluoro-1H-indazol-4-yl)-8-methyl-7-(oxetan-3-yl)-1H-1,5-naphthyridin-2-one] | 6.15 mL/min/kg | < 10 nM
Cc1c(C(C)(F)F)cnc2c(-c3ccc(F)c4[nH]ncc34)c(N)c(=O)[nH]c12 [Example 134, 3-Amino-7-(1,1-difluoroethyl)-4-(7-fluoro-1H-indazol-4-yl)-8-methyl-1H-1,5-naphthyridin-2-one] | 6.15 mL/min/kg | < 10 nM
Cc1c([S+](C)[O-])cnc2c(-c3ccc(F)c4[nH]ncc34)c(N)c(=O)[nH]c12 (stereo not shown) [Example 142, 3-Amino-4-(7-fluoro-1H-indazol-4-yl)-8-methyl-7-methylsulfinyl-1H-1,5-naphthyridin-2-one] | 6.15 mL/min/kg | 18.4 nM

From patent US20260078122A1, “INDAZOLE COMPOUNDS AS PKMYT1 KINASE INHIBITORS” (Hoffmann-La Roche Inc., priority 2023, published 2026)
